From patent US6939946B2, “Ring modified cyclic peptide analogs” (Eli Lilly and Company, priority 1998, dated 2005)
Numbered stars: 1 amine (or outer) side, 2 acyl side, 3 side chain; on linkers, the order of the positions; unused ones are H or OH. Bridge positions count the residues as written; N and C are the ends. Square brackets hold non-standard residues; d marks the D form. Peptide text beside a SMILES is read from it. * marks the point of attachment. ξ: configuration not given here. pTerphenylCO(4''-OnC5H11) = CCCCCOc1ccc(-c2ccc(-c3ccc(C(=O)*)cc3)cc2)cc1; Pro(3S-OH,4S-Me) = C[C@H]1CN[C@H](C(=O)O)[C@H]1O; hTyr(3R-OH) = N[C@H](C(=O)O)[C@H](O)Cc1ccc(O)cc1; X1 = CN1CCC(NC[C@H](N[*:1])C(=O)[*:2])CC1; Hyp = O=C(O)[C@@H]1C[C@@H](O)CN1; Thr(3ξ) = CC(O)[C@H](N)C(=O)O; Orn = NCCC[C@H](N)C(=O)O; dDap = NC[C@@H](N)C(=O)O; Dap = NC[C@H](N)C(=O)O

Columns and labels:
A. fumigatus = settings: in vitro
Histoplasma capsulatum = settings: in vitro
Cryptococcus neoformans = settings: in vitro
C. parapsilosis = settings: in vitro
C. albicans = settings: in vitro
[1] = the molecule shown is the open-chain precursor; amide bond; 22-membered ring; H2/Pd-C (EtOH/AcOH), then Et3N; Et2O; 1.1 mM; 2 steps

Compound	Minimal Inhibitory Concentration MIC A. fumigatus (A. fumigatus)	Minimal Inhibitory Concentration MIC Histoplasma capsulatum (Histoplasma capsulatum)	Minimal Inhibitory Concentration MIC Cryptococcus neoformans (Cryptococcus neoformans)	Minimal Inhibitory Concentration MIC C. parapsilosis (C. parapsilosis)	Minimal Inhibitory Concentration MIC C. albicans (C. albicans)	ring closure, isolated yield [1]
C[C@@H]1[C@H](O)[C@@H](C)/C=C/C=C/C=C/C=C/C=C/C=C/C=C/[C@H](O[C@@H]2O[C@H](C)[C@@H](O)[C@H](N)[C@@H]2O)C[C@@H]2O[C@](O)(C[C@@H](O)C[C@@H](O)[C@H](O)CC[C@@H](O)C[C@@H](O)CC(=O)O[C@H]1C)C[C@H](O)[C@H]2C(=O)O [Ampho B, Amphotericin B, reference compound]	0.312 µg/mL	0.039 µg/mL	0.039 µg/mL	0.038 µg/mL	0.078 µg/mL	–
CCCCCOc1ccc(-c2ccc(-c3ccc(C(=O)N[C@@H]4CS(=O)(=O)CCNC(=O)[C@@H]5[C@H](O)[C@@H](C)CN5C(=O)[C@H]([C@@H](C)O)NC(=O)[C@H]([C@H](O)Cc5ccc(O)cc5)NC(=O)[C@@H]5C[C@@H](O)CN5C(=O)[C@H]([C@@H](C)O)NC4=O)cc3)cc2)cc1 [Compound E3-7]	>20 µg/mL	>20 µg/mL	–	>20 µg/mL	>20 µg/mL	–
CCCCCOc1ccc(-c2ccc(-c3ccc(C(=O)N[C@H]4CCCNC(=O)[C@@H]5[C@@H](O)[C@@H](C)CN5C(=O)[C@H](C(C)O)NC(=O)[C@H]([C@H](O)Cc5ccc(O)cc5)NC(=O)[C@@H]5C[C@@H](O)CN5C(=O)[C@H](C(C)C)NC4=O)cc3)cc2)cc1 (stereo partly drawn) [Compound E4-6] ({pTerphenylCO(4''-OnC5H11)}-[Orn]V[Hyp][hTyr(3R-OH)][Thr(3ξ)][Pro(3S-OH,4S-Me)]; lactam 1-C)	>20 µg/mL	>20 µg/mL	–	>20 µg/mL	1.25 µg/mL	–
CCCCCOc1ccc(-c2ccc(-c3ccc(C(=O)N[C@H]4CCCNC(=O)[C@@H]5[C@@H](O)[C@@H](C)CN5C(=O)[C@H](C(C)O)NC(=O)[C@H]([C@H](O)Cc5ccc(O)cc5)NC(=O)[C@@H]5C[C@@H](O)CN5C(=O)[C@H](Cc5ccc(O)cc5)NC4=O)cc3)cc2)cc1 (stereo partly drawn) [Compound E5-7] ({pTerphenylCO(4''-OnC5H11)}-[Orn]Y[Hyp][hTyr(3R-OH)][Thr(3ξ)][Pro(3S-OH,4S-Me)]; lactam 1-C)	>20 µg/mL	>20 µg/mL	–	>20 µg/mL	>20 µg/mL	–
CCCCCOc1ccc(-c2ccc(-c3ccc(C(=O)N[C@H]4CNC(=N)NC(=O)[C@@H]5[C@@H](O)[C@@H](C)CN5C(=O)[C@H](C(C)O)NC(=O)[C@H]([C@H](O)Cc5ccc(O)cc5)NC(=O)[C@@H]5C[C@@H](O)CN5C(=O)[C@H](C(C)O)NC4=O)cc3)cc2)cc1 (stereo partly shown) [Compound E6-6]	>20 µg/mL	>20 µg/mL	–	>20 µg/mL	0.078 µg/mL	–
CCCCCOc1ccc(-c2ccc(-c3ccc(C(=O)N[C@H]4CNC(=O)[C@H](CN)NC(=O)[C@@H]5[C@@H](O)[C@@H](C)CN5C(=O)[C@H](C(C)O)NC(=O)[C@H]([C@H](O)Cc5ccc(O)cc5)NC(=O)[C@@H]5C[C@@H](O)CN5C(=O)[C@H](C(C)O)NC4=O)cc3)cc2)cc1 (stereo partly drawn) [Compound E8-8] ({pTerphenylCO(4''-OnC5H11)}-[Dap][Thr(3ξ)][Hyp][hTyr(3R-OH)][Thr(3ξ)][Pro(3S-OH,4S-Me)][Dap]; lactam 1-C)	5.0 µg/mL	0.312 µg/mL	>20 µg/mL	0.625 µg/mL	0.078 µg/mL	–
CCCCCOc1ccc(-c2ccc(-c3ccc(C(=O)N[C@H]4CNC(=O)[C@H](CNC5CCN(C)CC5)NC(=O)[C@@H]5[C@@H](O)[C@@H](C)CN5C(=O)[C@H](C(C)O)NC(=O)[C@H]([C@H](O)Cc5ccc(O)cc5)NC(=O)[C@@H]5C[C@@H](O)CN5C(=O)[C@H](C(C)O)NC4=O)cc3)cc2)cc1 (stereo partly drawn) [Compound E8-9] ({pTerphenylCO(4''-OnC5H11)}-[Dap][Thr(3ξ)][Hyp][hTyr(3R-OH)][Thr(3ξ)][Pro(3S-OH,4S-Me)][X1]; lactam 1-C)	5.0 µg/mL	0.625 µg/mL	>20 µg/mL	5.0 µg/mL	0.156 µg/mL	–
CCCCCOc1ccc(-c2ccc(-c3ccc(C(=O)N[C@H]4CCNNC(=O)[C@@H]5[C@@H](O)[C@@H](C)CN5C(=O)[C@H](C(C)O)NC(=O)[C@H]([C@H](O)Cc5ccc(O)cc5)NC(=O)[C@@H]5C[C@@H](O)CN5C(=O)[C@H](C(C)O)NC4=O)cc3)cc2)cc1 (stereo partly shown) [E2-10(b)]	0.156 µg/mL	0.156 µg/mL	–	0.156 µg/mL	0.01 µg/mL	–
CCCCCOc1ccc(-c2ccc(-c3ccc(C(=O)N[C@H]4CCN(CC)NC(=O)[C@@H]5[C@@H](O)[C@@H](C)CN5C(=O)[C@H](C(C)O)NC(=O)[C@H]([C@H](O)Cc5ccc(O)cc5)NC(=O)[C@@H]5C[C@@H](O)CN5C(=O)[C@H](C(C)O)NC4=O)cc3)cc2)cc1 (stereo partly shown) [E2-11(b)]	0.312 µg/mL	0.02 µg/mL	–	0.156 µg/mL	0.001 µg/mL	–
CCCCCOc1ccc(-c2ccc(-c3ccc(C(=O)N[C@H]4CCN(CCC)NC(=O)[C@@H]5[C@@H](O)[C@@H](C)CN5C(=O)[C@H](C(C)O)NC(=O)[C@H]([C@H](O)Cc5ccc(O)cc5)NC(=O)[C@@H]5C[C@@H](O)CN5C(=O)[C@H](C(C)O)NC4=O)cc3)cc2)cc1 (stereo partly shown) [E2-11(c)]	0.156 µg/mL	0.312 µg/mL	–	1.25 µg/mL	0.312 µg/mL	–
CCCCCOc1ccc(-c2ccc(-c3ccc(C(=O)N[C@@H]4CNC(=O)CNC(=O)[C@@H]5[C@@H](O)[C@@H](C)CN5C(=O)[C@H](C(C)O)NC(=O)[C@H]([C@H](O)Cc5ccc(O)cc5)NC(=O)[C@@H]5C[C@@H](O)CN5C(=O)[C@H](C(C)O)NC4=O)cc3)cc2)cc1 (stereo partly drawn) [E7-6(a)] ({pTerphenylCO(4''-OnC5H11)}-[dDap][Thr(3ξ)][Hyp][hTyr(3R-OH)][Thr(3ξ)][Pro(3S-OH,4S-Me)]G; lactam 1-C)	>20 µg/mL	>20 µg/mL	>20 µg/mL	>20 µg/mL	>20 µg/mL	–
CCCCCOc1ccc(-c2ccc(-c3ccc(C(=O)N[C@H]4CNC(=O)CNC(=O)[C@@H]5[C@@H](O)[C@@H](C)CN5C(=O)[C@H](C(C)O)NC(=O)[C@H]([C@H](O)Cc5ccc(O)cc5)NC(=O)[C@@H]5C[C@@H](O)CN5C(=O)[C@H](C(C)O)NC4=O)cc3)cc2)cc1 (stereo partly drawn) [E7-6(b)] ({pTerphenylCO(4''-OnC5H11)}-[Dap][Thr(3ξ)][Hyp][hTyr(3R-OH)][Thr(3ξ)][Pro(3S-OH,4S-Me)]G; lactam 1-C)	5.0 µg/mL	1.25 µg/mL	>20 µg/mL	>20 µg/mL	0.312 µg/mL	–
CCCCCOc1ccc(-c2ccc(-c3ccc(C(=O)NC[C@H]4NC(=O)CNC(=O)[C@@H]5[C@@H](O)[C@@H](C)CN5C(=O)[C@H](C(C)O)NC(=O)[C@H]([C@H](O)Cc5ccc(O)cc5)NC(=O)[C@@H]5C[C@@H](O)CN5C(=O)[C@H](C(C)O)NC4=O)cc3)cc2)cc1 (stereo partly drawn) [E7-14(a)] (cyclo(G[dDap](pTerphenylCO(4''-OnC5H11))[Thr(3ξ)][Hyp][hTyr(3R-OH)][Thr(3ξ)][Pro(3S-OH,4S-Me)]))	>20 µg/mL	0.312 µg/mL	>20 µg/mL	>20 µg/mL	0.312 µg/mL	–
CCCCCOc1ccc(-c2ccc(-c3ccc(C(=O)NC[C@@H]4NC(=O)CNC(=O)[C@@H]5[C@@H](O)[C@@H](C)CN5C(=O)[C@H](C(C)O)NC(=O)[C@H]([C@H](O)Cc5ccc(O)cc5)NC(=O)[C@@H]5C[C@@H](O)CN5C(=O)[C@H](C(C)O)NC4=O)cc3)cc2)cc1 (stereo partly drawn) [E7-14(b)] (cyclo([Dap](pTerphenylCO(4''-OnC5H11))[Thr(3ξ)][Hyp][hTyr(3R-OH)][Thr(3ξ)][Pro(3S-OH,4S-Me)]G))	>20 µg/mL	0.078 µg/mL	>20 µg/mL	>20 µg/mL	0.156 µg/mL	–
Boc-Cys(SO2; S-CH2CH2NH2)-Thr(TBS)-Hyp(TBS)-hTyr(3-OTBS,4'-OTBS)-Thr(TBS)-Pro(3-OTBS,4-Me)-N(Boc)2?	–	–	–	–	–	67%
